Results published in PMC10654507, “A cleavable chimeric peptide with targeting and killing domains enhances LPS neutralization and antibacterial properties against multi-drug resistant E. coli” (Communications Biology, 2023).
Read-outs that look alike come from different tables or passages of the source. Residues, ends and D or L forms follow the SMILES beside them.

What was measured:
MDR E. coli = assay type: in vivo, mouse; set-up: key to therapeutic efficacy, survival, single-animal event: 1 represents a mouse death; 0 represents no death; conditions: for therapeutic efficacy, survival, single-animal event: Supplementary Fig. 3a source data, MDR E. coli challenge, one cell per mouse
Procedure: Supplementary Figure 3. Therapeutic eﬀicacy of cleavable chimeric peptide R7 in the mice
challenged with MDR E. coli or LPS After the intraperitoneal injection with MDR E. coli (a) or LPS
(b) at a concentration of LD100, the mice were treated with 7 μmol/kg R7 at 0.5 h and 8 h, respectively.
The mouse survival was recorded for 7 d. The mice injected with MDR E. coli/LPS or saline were used

in vitro = in vitro ADME; conditions: for degradation in human serum: RP-HPLC (Supplementary Fig. 2)
LPS = assay: Serum cytokines (TNF-α, IL-6, IL-1β, IL-10; ELISA) in LPS-challenged mice; assay type: in vivo, mouse; conditions: LPS-challenged mice pre-treated with 7 μmol/kg, range over sampling times (12 h, 24 h)
Procedure: After E. coli or LPS challenge, the mice were sacrificed at 12 h and 24 h, respectively, and the sera were collected to detect inflammatory cytokines (such as tumor necrosis factor-α (TNF-α), interleukin-6 (IL-6), interleukin-1β (IL-1β), and interleukin-10 (IL-10)) using the enzyme linked immunosorbent assay (ELISA) kits. To evaluate the specific activity of intestinal alkaline phosphatase (IAP), a 2 cm segment of duodenum was rapidly intercepted from the mice and homogenized; the IAP levels in the supernatant were detected by ELISA. In addition, the lungs were collected from the mice infected by E. coli after 12 and 24 h, respectively and were homogenized in sterile PBS for the bacterial counts assay.

MDR E. coli CVCC195 [1] = assay: Infiltrated inflammatory cells in lung sections, E. coli-challenged mice; assay type: in vivo, mouse; conditions: Fig. 6c source data, peptide + E. coli, mean
Procedure: Fig. 6 Effects of cleavable chimeric peptide R7 on lung injury in mice. […] Lung injury was analyzed histologically at 12 h or 24 h. a Histopathological images of lung sections after staining with hematoxylin and eosin (H&E). Images are presented at a magnification of 100×. b Pathological analysis of lung. Lung injury involves in inflammation (such as peribronchial, perivascular, intrabronchial, and pulmonary interstitial one), bronchial exudate, and alveolar septal thickening, respectively. The specific degree of lung injury of each mouse is assessed by Score 0 (asymptomatic), Score 1 (mild), Score 2 (moderate), and Score 3 (severe), respectively. c The number of counted infiltrated inflammatory cells within processed lung sections from a. Data represent the mean ± SD of three independent experiments. Different lower-case letters indicate a significant difference between the two groups (p < 0.05).
Lung tissues were taken at 12 h and 24 h, respectively, washed with PBS, and fixed in 4% paraformaldehyde overnight. After dehydration in different concentrations of ethanol (including 75%, 85%, 90%, and 95%, respectively), the tissues were embedded in paraffin, sliced, and stained with hematoxylin. Observation was performed under a light microscope. The mice only injected with E. coli, LPS or PBS was regard as the negative or blank control.

[2] = Serum stability in mouse serum (RP-HPLC); assay type: in vitro ADME; conditions: 25% mouse serum; for remaining at 0.5 h, 0.5 mM / remaining at 1 h, 0.5 mM / remaining at 2 h, 0.5 mM / remaining at 4 h, 0.5 mM / remaining rate in mouse serum / remaining at 8 h, 0.5 mM: peptide 0.5 mM, mean of three; for remaining at 0.5 h, 0.5 mM / remaining at 1 h, 0.5 mM / remaining at 2 h, 0.5 mM / remaining at 4 h, 0.5 mM / remaining at 8 h, 0.5 mM: read-out: remaining rate in mouse serum; for remaining rate in mouse serum / remaining at 8 h, 0.5 mM: 8 h; for peptide remained intact in mouse serum: range from 2 h to 8 h of incubation
Procedure: (§1) Serum stability of R7 and its parent-L7 was tested as previously described with minor modifications[46],[53]. Briefly, each peptide was added to the 25% mouse serum to a final concentration of 0.5 mM; 250 µL aliquots of samples were taken at 0, 0.5, 1, 2, 4 and 8 h, and mixed with 20 µL 15% trichloroacetic acid (TCA). The samples were incubated at 4 °C for 15 min and centrifuged for 10 min at 12,000 rpm. The supernatants were analyzed by RP-HPLC or inhibition zone method. Moreover, after incubation in serum for 2 h, R7 was analyzed by matrix assisted laser desorption/ionization-time of flight mass spectrometry (MALDI-TOF MS) and high-performance liquid chromatography-mass spectrometry (HPLC-MS), respectively.

MDR E. coli CVCC195 [3] = assay: Efficacy of different doses of R7 in mice challenged with MDR E. coli (survival); assay type: in vivo, mouse; set-up: key: 1 represents a mouse death; 0 represents no death; conditions: Supplementary Fig. 4 source data, MDR E. coli challenge
Procedure: Supplementary Figure 4. Eﬀicacy of different doses of cleavable chimeric peptide R7 in the mice
challenged with MDR E. coli. Mice were intraperitoneally injected with 3.5, 7 or 14 μmol/kg R7 at 0
h (five mice/group), followed by injection with MDR E. coli CVCC195 (0.5×10^9 CFU/mouse) at 6 h.
PBS was used as control. Survival was recorded for 7 d.

MDR E. coli CVCC195 [4] = assay: Antibacterial activity after incubation in mouse serum (inhibition zone); assay type: cell-based, Escherichia coli; conditions: until 8 h of incubation
Procedure: as §1

[5] = tested on: E. coli, S. typhimurium and S. aureus; assay type: cell-based; conditions: tested S. aureus strains
Procedure: The minimum inhibitory concentration (MIC) and minimum bactericidal concentration (MBC) of peptides were determined by the microtiter broth dilution method according to Clinical and Laboratory Standards Institute (CLSI) guidelines. […] PBS was used as the negative control. […] The MBC value was calculated as the lowest concentration of peptides resulting in a 99.9% reduction of the original inoculum. All experiments were repeated three times.

[6] = Supplementary Fig. 2b source data, human serum, RP-HPLC, mean, read-out: remaining rate in human serum

Structure (SMILES)	therapeutic efficacy, survival, single-animal event (MDR E. coli; event at day 2)	degradation in human serum (in vitro)	remaining at 0.5 h, 0.5 mM (in vitro; [6])	remaining at 1 h, 0.5 mM (in vitro; [6])	remaining at 2 h, 0.5 mM (in vitro; [6])	remaining at 4 h, 0.5 mM (in vitro; [6])	serum IL-1β concentration (LPS)	serum IL-6 concentration (LPS)	serum IL-10 concentration (LPS)	serum TNF-α concentration (LPS)	number of counted infiltrated inflammatory cells (MDR E. coli CVCC195 [1]; 12 h)	number of counted infiltrated inflammatory cells (MDR E. coli CVCC195 [1]; 24 h)	remaining at 0.5 h, 0.5 mM [2]	remaining at 1 h, 0.5 mM [2]	remaining at 2 h, 0.5 mM [2]	remaining at 4 h, 0.5 mM [2]	remaining rate in mouse serum [2]	remaining at 8 h, 0.5 mM [2]	peptide remained intact in mouse serum [2]	also measured
CSCC[C@H](NC(=O)[C@H](CCCNC(=N)N)NC(=O)[C@H](Cc1c[nH]c2ccccc12)NC(=O)[C@H](C)NC(=O)[C@H](Cc1c[nH]c2ccccc12)NC(=O)[C@H](CCCNC(=N)N)NC(=O)[C@H](Cc1c[nH]c2ccccc12)NC(=O)[C@H](C)NC(=O)[C@H](CCCCN)NC(=O)[C@@H](N)Cc1ccccc1)C(=O)N[C@@H](CCCCN)C(=O)N[C@@H](CCCCN)C(=O)N[C@@H](CC(C)C)C(=O)N[C@@H](C)C(=O)N[C@@H](C)C(=O)N1CCC[C@H]1C(=O)N[C@@H](CO)C(=O)O [L7] (H-FKAWRWAWRMKKLAAPS-OH)	1	almost identical to those in mouse serum	86.9%	51.4%	32%	4.71%	24.6 ~ 26.1 pg/mL	113.2 ~ 120.2 pg/mL	11.5 ~ 12.0 pg/mL	56.4 ~ 68.0 pg/mL	32.847	26.4133	74.5%	62.7%	25.3%	6.01%	completely undetectable	0.829%	25.3 ~ 0.8%	therapeutic efficacy, survival, single-animal event (MDR E. coli; event at day 4): 1; therapeutic efficacy, survival, single-animal event (MDR E. coli; event at day 6): 1; remaining at 8 h, 0.5 mM (in vitro; Supplementary Fig. 2b source data, human serum, 8 h, RP-HPLC, mean, read-out: remaining rate in human serum): 0.839%
CSCC[C@H](NC(=O)[C@H](CCCNC(=N)N)NC(=O)[C@H](Cc1c[nH]c2ccccc12)NC(=O)[C@H](C)NC(=O)[C@H](Cc1c[nH]c2ccccc12)NC(=O)[C@H](CCCNC(=N)N)NC(=O)[C@H](Cc1c[nH]c2ccccc12)NC(=O)[C@H](C)NC(=O)[C@H](CCCCN)NC(=O)[C@H](Cc1ccccc1)NC(=O)[C@H](CCCNC(=N)N)NC(=O)[C@H](CCCNC(=N)N)NC(=O)[C@H](CCCCN)NC(=O)[C@H](CCCNC(=N)N)NC(=O)[C@H](CCCCN)NC(=O)[C@H](Cc1ccccc1)NC(=O)[C@H](Cc1ccccc1)NC(=O)[C@H](CO)NC(=O)[C@H](C)NC(=O)[C@H](CCCNC(=N)N)NC(=O)[C@@H](NC(=O)[C@H](CCCCN)NC(=O)[C@H](Cc1c[nH]c2ccccc12)NC(=O)[C@H](CCCNC(=N)N)NC(=O)CNC(=O)[C@H](CCC(N)=O)NC(=O)[C@@H](NC(=O)[C@@H](N)CCCNC(=N)N)C(C)C)C(C)C)C(=O)N[C@@H](CCCCN)C(=O)N[C@@H](CCCCN)C(=O)N[C@@H](CC(C)C)C(=O)N[C@@H](C)C(=O)N[C@@H](C)C(=O)N1CCC[C@H]1C(=O)N[C@@H](CO)C(=O)O [R7] (H-RVQGRWKVRASFFKRKRRFKAWRWAWRMKKLAAPS-OH)	1	almost identical to those in mouse serum	58.6%	51.9%	45.6%	23%	16.9 ~ 17.5 pg/mL	92.5 ~ 99.3 pg/mL	13.9 ~ 14.5 pg/mL	43.1 ~ 46.1 pg/mL	14.3787	11.7743	101%	81.6%	29.8%	21.2%	~ 20%	21.7%	29.8 ~ 21.7%	efficacy of different doses, survival, event (MDR E. coli CVCC195 [3]; 3.5 μmol/kg R7, day 1, one cell per mouse): 1; efficacy of different doses, survival, event (MDR E. coli CVCC195 [3]; 3.5 μmol/kg R7, day 7): 0; efficacy of different doses, survival, event (MDR E. coli CVCC195 [3]; 7 μmol/kg R7, day 1): 0; efficacy of different doses, survival, event (MDR E. coli CVCC195 [3]; 7 μmol/kg R7, day 2): 0; efficacy of different doses, survival, event (MDR E. coli CVCC195 [3]; 7 μmol/kg R7, day 3): 0; efficacy of different doses, survival, event (MDR E. coli CVCC195 [3]; 7 μmol/kg R7, day 4): 0; efficacy of different doses, survival, event (MDR E. coli CVCC195 [3]; 7 μmol/kg R7, day 7): 0; efficacy of different doses, survival, event (MDR E. coli CVCC195 [3]; 14 μmol/kg R7, day 1): 0; efficacy of different doses, survival, event (MDR E. coli CVCC195 [3]; 14 μmol/kg R7, day 2): 0; efficacy of different doses, survival, event (MDR E. coli CVCC195 [3]; 14 μmol/kg R7, day 3): 0; efficacy of different doses, survival, event (MDR E. coli CVCC195 [3]; 14 μmol/kg R7, day 5): 0; efficacy of different doses, survival, event (MDR E. coli CVCC195 [3]; 14 μmol/kg R7, day 7): 0; mouse survival, therapeutic treatment (MDR E. coli; MDR E. coli at LD100 i.p., then 7 μmol/kg R7 at 0.5 h and 8 h, recorded 7 d): ≤ 20%; therapeutic efficacy, survival, single-animal event (MDR E. coli; event at day 1): 1; therapeutic efficacy, survival, single-animal event (MDR E. coli; event at day 3): 1; therapeutic efficacy, survival, single-animal event (MDR E. coli; event at day 5): 1; change of antibacterial activity in mouse serum (MDR E. coli CVCC195 [4]): did not changed; increase of activity compared to parent peptides (LBP14-RKRR and L7) [5]: ≥ 2 fold
